From publication PMC3314694, “Small Molecule Antagonists of the Wnt/Beta-Catenin Signaling Pathway Target Breast Tumor-Initiating Cells in a Her2/Neu Mouse Model of Breast Cancer” (PLoS ONE, 2012)

Assays:
[1] = system: tumorsphere-derived cells; test: Sphere forming assay, tumorsphere-derived cells; assay type: cell-based, mouse
From the text: (§1) To determine whether Wnt/β-catenin signaling was required for BTIC and mammary epithelial stem and progenitor cell function in vitro, we examined the effect of agonists and antagonists of Wnt/β-catenin signaling on sphere formation, which when performed under appropriate conditions is thought to be an attribute of stem/progenitor cells and TICs, [38], [39], [40]. We seeded dispersed cells dissociated from mammospheres and tumorspheres into media containing either Dkk1 or Wnt3a at concentrations previously shown to be sufficient to inhibit or activate the Wnt/β-catenin signaling pathway, respectively, [42]. Dkk1 is a secreted protein inhibitor [43], and Wnt3A is a stimulatory ligand of Wnt/β-catenin signaling. […] We used the small molecule BIO to inhibit GSKβ, a negative regulator of Wnt/β-catenin signaling.
(§2) We similarly tested pharmacological agents, which target Wnt/β-catenin signaling (PKF118–310, PKF115–584, CGP049090), for their affect on sphere formation. These inhibitors are specific antagonists of Wnt/β-catenin signaling that interrupt the […] step in pathway activation, namely the interaction between β-catenin and Tcf/Lef transcription factors. We seeded freshly isolated primary tumor cells and primary mammary epithelial cells, as well as mammosphere- and tumorsphere-derived cells into medium containing various concentrations of the inhibitors.
(§3) The #3 and #4 mammary glands from virgin female FVB/N mice (6–8 weeks old) and mammary tumors were isolated as described previously, [56]. Mammospheres and tumorspheres were established from the bulk primary mammary epithelial and tumor cell population respectively as described previously. Serial passage of the mammospheres and tumorspheres was accomplished by mechanically dissociated the cells from spheres using titruation and reseeding the dispersed cells into fresh medium. Passage of the spheres was limited to 3–5 serial passages before the cells were harvested and RNA prepared. To induce a differentiation program in mammospheres in vitro, intact mammospheres were collected by centrifugation, the spheres were dissociated and the dispersed cells were plated at a density of 150,000 cells/ml on rat-tail collagen (Roche, Basel, Switzerland) coated 60 mm Petri dishes, [59]. The cells were incubated for a week before they were harvested and used to prepare cellular RNA for analyses.
(§4) Sphere and colony forming assays were completed as previously described. Dkk1 and Wnt3A were obtained from RnDSystems (Minneapolis, Minnesota). PKF118–310, PKF115–584 and CGP049090 were a gift from Novartis (Basel, Switzerland).
(§5) The 50% inhibitory concentration (IC50) of compounds was calculated using GraphPad Prism5 software. X-axis values were X = Log(X) transformed and then fit with a dose-response curve. The DMSO vehicle control was included to aid IC50 calculation and was assigned a 1 nM concentration of the tested compound.

[2] = system: mammosphere-derived cells; test: Sphere forming assay, mammosphere-derived cells; assay type: cell-based, mouse
From the text: as §1, §2, §3, §4, §5

[3] = system: pre-established breast tumors; test: In vivo compound administration to tumor-bearing mice; parameters: species or system mouse
From the text: To determine whether PKF118–310 affected the growth of pre-established breast tumors and reduced BTIC frequency in vivo, we transplanted primary breast tumor cells into syngeneic mice and treated these hosts with PKF118–310 after the tumors had reached a volume of ∼1 cm^3. […] After treatment ceased the tumors in mice administered the vehicle were ∼3 fold larger than those in PKF118–310-treated mice (Fig. 4B, *p<0.05).
To uncover potential mechanisms whereby the compound halted tumor growth, we prepared sections from the tumors of both cohorts and stained them with Hematoxylin and Eosin (H&E). […] In some cases the cell-free areas contained material, characteristic of milk protein secretions. […] We also examined whether inhibition of tumor growth was accomplished by a reduction in cell proliferation and/or induction of apoptosis. We stained tumor sections for markers of proliferation (Ki67) and apoptosis (cleaved caspase-3 and TUNEL). We observed a significant decrease in the frequency of Ki67 positive tumor cell nuclei in the PKF118–310 treated tumor-bearing mice compared to their vehicle-treated counterparts (Fig. 4D&E). […] Tumors from PKF118–310 treated mice comprised approximately 3–4-fold fewer Ki67-positive cells than tumors from vehicle-treated mice. We similarly simultaneously stained the tumor sections with antibodies to a luminal lineage marker (CK8) and with those to each of two myoepithelial lineage markers (CK14 and alpha-smooth muscle actin [alpha-SMA). The vast majority of the cells in sections prepared from tumors of the vehicle-treated mice expressed only the luminal lineage marker in keeping with previous findings (data not shown). Tumor sections prepared from tumors of the mice administered PKF118–310 also only expressed the luminal lineage marker.
To learn whether administration of PKF118–310 to tumor-bearing mice inhibited Wnt/β-catenin signaling in tumors, we measured the abundance of Wnt/β-catenin target gene transcripts in the tumor cells.
Freshly isolated primary tumor (100,000) cells were suspended in 50% Matrigel (BD, Franklin Lakes, New Jersey), 45% phosphate buffered saline pH7.4 (PBS) and 5% fetal bovine serum (FBS) [Invitrogen, Carlsbad, California], and the cells were injected subcutaneously between the shoulders into syngeneic 6–8 week-old female mice (FVB/N strain). Mice were monitored by palpation weekly for the occurrence of tumors. When tumors reached roughly 1 cm^3, the mice were administered either the vehicle (0.1% DMSO) or PKF118–310 (0.85 mg/kg) dissolved in 0.1% DMSO by intra-tumoral injection for 5 consecutive days followed by a 2-day rest period before compound administration was repeated once. Tumor volume was measured twice weekly. At the end of the 12-day treatment cycle the mice were sacrificed and their tumors harvested for analysis. […] Viable tumor cells (assessed by TrypanBlue staining) from vehicle- and compound-treated mice were isolated as described above and 10,000 cells were transplanted subcutaneously into syngeneic mice (n = 20, treated; n = 20, untreated).
Paraformaldehyde fixed tumor fragments were embedded in paraffin, sectioned and stained with H&E. The tumor sections were de-paraffinized and rehydrated in ethanol (100-70% gradient) before immunofluorescent analysis. Antigen retrieval was performed in Antigen Unmasking Solution (Vector, Burlingame, California). Slides were blocked with 3% normal goat serum (Dako, Denmark) and incubated with primary antibodies for 2 hours at room temperature (Ki67, 1∶200 [ABCAM, Cambridge, Massachusetts]. Secondary antibodies (Invitrogen) were used at a 1∶200 dilution for 1 hour at room temperature.

[4] = system: primary mammary epithelial cells; test: Secondary sphere-forming assay (self-renewal), primary mammary epithelial cells; assay type: cell-based, mouse; settings: 1 µM during 4-day primary sphere assay; secondary spheres in medium lacking inhibitor
From the text: (§6) To learn whether the inhibitory compounds affected the self-renewal of sphere-forming cells, we investigated the capacity of cells exposed to the compounds to serially form spheres. In short, dispersed primary mammary epithelial cells and primary tumor cells were exposed to PKF118–310 during a 4-day primary sphere-forming assay. The spheres that formed were counted, the cells dissociated from the spheres and the dispersed cells plated to form secondary spheres in fresh medium lacking the inhibitors.

[5] = system: primary tumor cells (BTIC); test: Ex vivo treatment of primary tumor cells and transplant into syngeneic mice; assay type: in vivo, mouse
Protocol: We incubated freshly isolated primary tumor cells under sphere forming conditions in presence of vehicle (DMSO) or PKF118–310 (1 µM or 2.5 µM concentrations). After 4 days the spheres were collected, dissociated and equal numbers (5,000) of viable PKF118–310- and vehicle-treated cells were injected sub-cutaneously into the syngeneic mice. Upon endpoint, when the tumor in any individual mouse reached 10% of its weight (∼6 weeks) all the animals were sacrificed and the tumors harvested.
as §4

primary tumor cells [6] = test: Sphere forming assay, primary tumor cells; assay type: cell-based, mouse; settings: for IC50: primary tumor cells; for selectivity (IC50 MMS/IC50 TMS) for primary tumor cells over primary mammary epithelial cells: sphere forming assays
From the text: as §2, §3, §4, §5

primary tumor cells [7] = test: Secondary sphere-forming assay (self-renewal), primary tumor cells; assay type: cell-based, mouse; settings: 1 µM during 4-day primary sphere assay; secondary spheres in medium lacking inhibitor
From the text: as §6

BTICs in tumors = test: Secondary transplant of tumor cells harvested from treated mice; assay type: in vivo; settings: 10,000 cells/mouse from treated mice
From the text: The principal objective of our experiments was to learn whether inhibition of Wnt/β-catenin signaling targeted BTICs in tumors. […] We reasoned that if PKF118–310 selectively targeted BTICs in vivo, viable cells isolated from PKF118–310 treated tumor-bearng hosts would engraft and elicit tumor growth less efficiently relative to their vehicle-treated counterparts. To this end, we transplanted tumor cells by injecting them sub-cutaneously (n = 20, PKF118–310-treated; n = 20, vehicle-treated) between the shoulders of syngeneic mice (10,000 cells/mouse) and measured tumor latency in the PKF118–310-treated and vehicle-treated transplant cohorts. […]
Freshly isolated primary tumor (100,000) cells were suspended in 50% Matrigel (BD, Franklin Lakes, New Jersey), 45% phosphate buffered saline pH7.4 (PBS) and 5% fetal bovine serum (FBS) [Invitrogen, Carlsbad, California], and the cells were injected subcutaneously between the shoulders into syngeneic 6–8 week-old female mice (FVB/N strain). Mice were monitored by palpation weekly for the occurrence of tumors. […] Tumor volume was measured twice weekly. […] Viable tumor cells (assessed by TrypanBlue staining) from vehicle- and compound-treated mice were isolated as described above and 10,000 cells were transplanted subcutaneously into syngeneic mice (n = 20, treated; n = 20, untreated).

[8] = system: primary mammary epithelial cells; test: Sphere forming assay, primary mammary epithelial cells; assay type: cell-based, mouse
From the text: as §2
The #3 and #4 mammary glands from virgin female FVB/N mice (6–8 weeks old) and mammary tumors were isolated as described previously, [56]. Mammospheres and tumorspheres were established from the bulk primary mammary epithelial and tumor cell population respectively as described previously. Serial passage of the mammospheres and tumorspheres was accomplished by mechanically dissociated the cells from spheres using titruation and reseeding the dispersed cells into fresh medium. Passage of the spheres was limited to 3–5 serial passages before the cells were harvested and RNA prepared. […]

[9] = 0.85 mg/kg, qRT-PCR, versus vehicle

O=C1Nc2cc(Br)ccc2/C1=C1/Nc2ccccc2/C1=N\O [BIO]
effect on sphere formation [1]: stimulated sphere formation | effect on sphere formation [2]: stimulated sphere formation

Cn1ncnc2c(=O)n(C)c(=O)nc1-2 [PKF118–310]
effect on tumor growth ([3]; 0.85 mg/kg intra-tumoral, 12 days (5 on, 2 off, 5 on)): inhibited tumor growth | tumor regression during treatment ([3]; 0.85 mg/kg, 12 days): did not induce significant tumor regression | abundance of axin2 transcripts in tumors [3, 9]: significantly lower | abundance of cyclin D1 transcripts in tumors [3, 9]: significantly lower | tumor volume after treatment, vehicle larger than treated ([3]; 0.85 mg/kg, t = 12 days): ~3 fold | Ki67-positive cells, fewer than in vehicle tumors ([3]; 0.85 mg/kg, tumor sections): 3–4 fold | cleaved caspase-3 or TUNEL staining (apoptosis) in tumors ([3]; 0.85 mg/kg, tumor sections): did not observe any positive staining | IC50 [1]: 940 nM | IC50 [2]: 540 nM | secondary mammosphere formation relative to vehicle [4]: at the same frequency as the vehicle-treated mammary epithelial cells | tumor latency versus vehicle-treated cells ([5]; cells incubated with 1 µM for 4 days): longer latency | tumor size at endpoint, smaller than vehicle-treated ([5]; cells incubated with 1 µM for 4 days, 5,000 viable cells s.c.): approximately 50% | tumor mass at endpoint ([5]; cells incubated with 1 µM for 4 days, 5,000 viable cells s.c., ∼6 weeks, control 0.49 g): 0.26 g | tumor initiation after transplant ([5]; cells incubated with 2.5 µM for 4 days, 5,000 viable cells s.c., ∼6 weeks): failed to initiate tumor growth in any of the host mice | IC50 (primary tumor cells [6]): 580 nM | selectivity (IC50 MMS/IC50 TMS) for primary tumor cells over primary mammary epithelial cells (primary tumor cells [6]): 2–3 fold | reduction of capacity to form secondary spheres relative to vehicle (primary tumor cells [7]): ~10 fold | mice remaining tumor free (BTICs in tumors; 12 week follow-up): 85% | mice forming tumor grafts (BTICs in tumors; vehicle 20/20): 3 of 20 | IC50 [8]: 1540 nM

PKF115–584
IC50 [1]: 1340 nM | IC50 [2]: 1390 nM | IC50 (primary tumor cells [6]): 310 nM | selectivity (IC50 MMS/IC50 TMS) for primary tumor cells over primary mammary epithelial cells (primary tumor cells [6]): 6–7 fold | IC50 [8]: 2050 nM

B1: Dkk1: secreted protein inhibitor of Wnt/β-catenin signaling, from RnDSystems (protein, UniProt O94907 32-266, looked up)
Dickkopf-related protein 1: TLNSVLNSNAIKNLPPPLGGAAGHPGSAVSAAPGILYPGGNKYQTIDNYQPYPCAEDEECGTDEYCASPTRGGDAGVQICLACRKRRKRCMRHAMCCPGNYCKNGICVSSDQNHFRGEIEETITESFGNDHSTLDGYSRRTTLSSKMYHTKGQEGSVCLRSSDCASGLCCARHFWSKICKPVLKEGQVCTKHRRKGSHGLEIFQRCYCGEGLSCRIQKDHHQASNSSRLHTCQRH
effect on sphere formation [1]: reduced sphere formation | effect on sphere formation [2]: reduced sphere formation

B2: Wnt3A: stimulatory ligand of Wnt/β-catenin signaling, from RnDSystems (protein, UniProt P56704 19-352, looked up)
Protein Wnt-3a: SYPIWWSLAVGPQYSSLGSQPILCASIPGLVPKQLRFCRNYVEIMPSVAEGIKIGIQECQHQFRGRRWNCTTVHDSLAIFGPVLDKATRESAFVHAIASAGVAFAVTRSCAEGTAAICGCSSRHQGSPGKGWKWGGCSEDIEFGGMVSREFADARENRPDARSAMNRHNNEAGRQAIASHMHLKCKCHGLSGSCEVKTCWWSQPDFRAIGDFLKDKYDSASEMVVEKHRESRGWVETLRPRYTYFKVPTERDLVYYEASPNFCEPNPETGSFGTRDRTCNVSSHGIDGCDLLCCGRGHNARAERRREKCRCVFHWCCYVSCQECTRVYDVHTCK
effect on sphere formation [1]: stimulated sphere formation | effect on sphere formation [2]: stimulated sphere formation
